# Active and inactive are the calls of the source. No rule for the calls is given here.
# Test system: rodent carcinogenicity bioassays, tumor incidence
# Test: CCRIS carcinogenicity studies
# Summary of the method: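 Archive of carcinogenicity, mutagenicity, tumor promotion and tumor inhibition results drawn from journals, NCI reports and other sources, expert-reviewed; covers 1985-2011 and is no longer updated.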
Compound,"carcinogen call (Species: Rat, Strain/Sex: Wistar/Female (120/Control group; 80/Experimental group), Route: Oral, Dose: 0, 50, 130, 350 ppm in diet for 24 mo, study duration 24 mo, Dose: 0, 50, 130, 350 ppm in diet for 24 mo, study duration 24 mo)","carcinogen call (Species: Rat, Strain/Sex: Wistar/Male (120/Control group; 80/Experimental group), Route: Oral, Dose: 0, 50, 130, 350 ppm in diet for 24 mo, study duration 24 mo, Dose: 0, 50, 130, 350 ppm in diet for 24 mo, study duration 24 mo)","carcinogen call (Species: MOUSE, Strain/Sex: NZB/FEMALE, Route: ORAL, Dose: 0, 1.56 NMOL IN DRINKING WATER 5D/WK FOR 8 WK FOR A TOTAL DOSE OF 0, 6.4 MILLIMOLAR/KG (STUDY DURATION: 400-600 D), Dose: 0, 1.56 NMOL IN DRINKING WATER 5D/WK FOR 8 WK FOR A TOTAL DOSE OF 0, 6.4 MILLIMOLAR/KG (STUDY DURATION: 400-600 D), Tumor Site: Type of Lesion: OROPHARYNX: PAPILLOMA OR CARCINOMA, ESOPHAGUS: PAPILLOMA OR CARCINOMA, STOMACH: SQUAMOUS CELL CARCINOMA, LIVER: HEPATOCE, Tumor Site: Type of Lesion: OROPHARYNX: PAPILLOMA OR CARCINOMA, ESOPHAGUS: PAPILLOMA OR CARCINOMA, STOMACH: SQUAMOUS CELL CARCINOMA, LIVER: HEPATOCE)","carcinogen call (Species: MOUSE, Strain/Sex: NZB/MALE, Route: ORAL, Dose: 0, 1.56 NMOL IN DRINKING WATER 5D/WK FOR 8 WK FOR A TOTAL DOSE OF 0, 5.4 MILLIMOLAR/KG (STUDY DURATION: 400-600 D), Dose: 0, 1.56 NMOL IN DRINKING WATER 5D/WK FOR 8 WK FOR A TOTAL DOSE OF 0, 5.4 MILLIMOLAR/KG (STUDY DURATION: 400-600 D), Tumor Site: Type of Lesion: ESOPHAGUS: PAPILLOMA OR CARCINOMA, STOMACH: SQUAMOUS CELL CARCINOMA, LIVER: HEPATOCELLULAR TUMOR, LUNG: ALVEOLAR ADENOMA, Tumor Site: Type of Lesion: ESOPHAGUS: PAPILLOMA OR CARCINOMA, STOMACH: SQUAMOUS CELL CARCINOMA, LIVER: HEPATOCELLULAR TUMOR, LUNG: ALVEOLAR ADENOMA)","carcinogen call (Species: MOUSE, Strain/Sex: NZC/FEMALE, Route: ORAL, Dose: 0, 1.56 NMOL IN DRINKING WATER 5D/WK FOR 8 WK FOR A TOTAL DOSE OF 0, 5.3 MILLIMOLAR/KG (STUDY DURATION: 600-800 D), Dose: 0, 1.56 NMOL IN DRINKING WATER 5D/WK FOR 8 WK FOR A TOTAL DOSE OF 0, 5.3 MILLIMOLAR/KG (STUDY DURATION: 600-800 D), Tumor Site: Type of Lesion: ESOPHAGUS: CARCINOMA OR PAPILLOMA, STOMACH: SQUAMOUS CELL CARCINOMA, LIVER: HEPATOCELLULAR TUMOR, Tumor Site: Type of Lesion: ESOPHAGUS: CARCINOMA OR PAPILLOMA, STOMACH: SQUAMOUS CELL CARCINOMA, LIVER: HEPATOCELLULAR TUMOR)","carcinogen call (Species: MOUSE, Strain/Sex: NZC/MALE, Route: ORAL, Dose: 0, 1.56 NMOL IN DRINKING WATER 5D/WK FOR 8 WK FOR A TOTAL DOSE OF 0, 6 MILLIMOLAR/KG (STUDY DURATION: 600-800 D), Dose: 0, 1.56 NMOL IN DRINKING WATER 5D/WK FOR 8 WK FOR A TOTAL DOSE OF 0, 6 MILLIMOLAR/KG (STUDY DURATION: 600-800 D), Tumor Site: Type of Lesion: OROPHARYNX: PAPILLOMA OR CARCINOMA, ESOPHAGUS: PAPILLOMA OR CARCINOMA, STOMACH: SQUAMOUS CELL CARCINOMA, LIVER: HEPATOCE, Tumor Site: Type of Lesion: OROPHARYNX: PAPILLOMA OR CARCINOMA, ESOPHAGUS: PAPILLOMA OR CARCINOMA, STOMACH: SQUAMOUS CELL CARCINOMA, LIVER: HEPATOCE)","carcinogen call (Species: MOUSE, Strain/Sex: NZO/FEMALE, Route: ORAL, Dose: 0, 1.56 NMOL IN DRINKING WATER 5D/WK FOR 8 WK FOR A TOTAL DOSE OF 0: 6.3 MILLIMOLAR/KG (STUDY DURATION: 600-800 D), Tumor Site: Type of Lesion: OROPHARYNX: PAPILLOMA OR CARCINOMA, ESOPHAGUS: PAPILLOMA OR CARCINOMA, STOMACH: SQUAMOUS CELL CARCINOMA, LIVER: HEPATOCE, Tumor Site: Type of Lesion: OROPHARYNX: PAPILLOMA OR CARCINOMA, ESOPHAGUS: PAPILLOMA OR CARCINOMA, STOMACH: SQUAMOUS CELL CARCINOMA, LIVER: HEPATOCE)","carcinogen call (Species: MOUSE, Strain/Sex: NZO/FEMALE, Route: ORAL, Dose: 0, 50 MG/L IN DRINKING WATER 5 D/WK FOR 32 WK (TOTAL DOSE: 52 MG) (STUDY DURATION: 1.5 YR), Tumor Site: Type of Lesion: OROPHARYNX: SQUAMOUS CELL CARCINOMA, SQUAMOUS CELL ADENOMA, STOMACH: SQUAMOUS CELL CARCINOMA, SQUAMOUS CELL ADENOMA, ESO, Tumor Site: Type of Lesion: OROPHARYNX: SQUAMOUS CELL CARCINOMA, SQUAMOUS CELL ADENOMA, STOMACH: SQUAMOUS CELL CARCINOMA, SQUAMOUS CELL ADENOMA, ESO)","carcinogen call (Species: MOUSE, Strain/Sex: NZO/FEMALE, Route: ORAL, Dose: 0, 200 MG/L IN DRINKING WATER 5 D/WK FOR 8 WK (TOTAL DOSE: 52 MG) (STUDY DURATION: 2 YR), Tumor Site: Type of Lesion: OROPHARYNX: SQUAMOUS CELL CARCINOMA, SQUAMOUS CELL ADENOMA, STOMACH: SQUAMOUS CELL CARCINOMA, SQUAMOUS CELL ADENOMA, ESO, Tumor Site: Type of Lesion: OROPHARYNX: SQUAMOUS CELL CARCINOMA, SQUAMOUS CELL ADENOMA, STOMACH: SQUAMOUS CELL CARCINOMA, SQUAMOUS CELL ADENOMA, ESO)","carcinogen call (Species: MOUSE, Strain/Sex: NZO/MALE, Route: ORAL, Dose: 0, 1.56 NMOL IN DRINKING WATER 5D/WK FOR 8 WK FOR A TOTAL DOSE OF 0, 6.1 MILLIMOLAR/KG (STUDY DURATION: 600-800 D), Dose: 0, 1.56 NMOL IN DRINKING WATER 5D/WK FOR 8 WK FOR A TOTAL DOSE OF 0, 6.1 MILLIMOLAR/KG (STUDY DURATION: 600-800 D), Tumor Site: Type of Lesion: OROPHARYNX: PAPILLOMA OR CARCINOMA, ESOPHAGUS: PAPILLOMA OR CARCINOMA, STOMACH: SQUAMOUS CELL CARCINOMA, LIVER: HEPATOCE, Tumor Site: Type of Lesion: OROPHARYNX: PAPILLOMA OR CARCINOMA, ESOPHAGUS: PAPILLOMA OR CARCINOMA, STOMACH: SQUAMOUS CELL CARCINOMA, LIVER: HEPATOCE)","carcinogen call (Species: MOUSE, Strain/Sex: NZO/MALE, Route: ORAL, Dose: 0, 50 MG/L IN DRINKING WATER 5 D/WK FOR 52 WK (TOTAL DOSE: 52 MG) (STUDY DURATION: 1.5 YR), Tumor Site: Type of Lesion: OROPHARYNX: SQUAMOUS CELL CARCINOMA, SQUAMOUS CELL ADENOMA, STOMACH: SQUAMOUS CELL CARCINOMA, SQUAMOUS CELL ADENOMA, ESO, Tumor Site: Type of Lesion: OROPHARYNX: SQUAMOUS CELL CARCINOMA, SQUAMOUS CELL ADENOMA, STOMACH: SQUAMOUS CELL CARCINOMA, SQUAMOUS CELL ADENOMA, ESO)","carcinogen call (Species: MOUSE, Strain/Sex: NZO/MALE, Route: ORAL, Dose: 0, 200 MG/L IN DRINKING WATER 5 D/WK FOR 8 WK (TOTAL DOSE: 52 MG) (STUDY DURATION: 2 YR), Tumor Site: Type of Lesion: OROPHARYNX: SQUAMOUS CELL CARCINOMA, SQUAMOUS CELL ADENOMA, STOMACH: SQUAMOUS CELL CARCINOMA, SQUAMOUS CELL ADENOMA, ESO, Tumor Site: Type of Lesion: OROPHARYNX: SQUAMOUS CELL CARCINOMA, SQUAMOUS CELL ADENOMA, STOMACH: SQUAMOUS CELL CARCINOMA, SQUAMOUS CELL ADENOMA, ESO)","carcinogen call (Species: MOUSE, Strain/Sex: NZY/FEMALE, Route: ORAL, Dose: 0, 1.56 NMOL IN DRINKING WATER 5D/WK FOR 8 WK FOR A TOTAL DOSE OF 0, 5.2 MILLIMOLAR/KG (STUDY DURATION: 600-800 D), Dose: 0, 1.56 NMOL IN DRINKING WATER 5D/WK FOR 8 WK FOR A TOTAL DOSE OF 0, 5.2 MILLIMOLAR/KG (STUDY DURATION: 600-800 D), Tumor Site: Type of Lesion: ESOPHAGUS: PAPILLOMA OR CARCINOMA, STOMACH: SQUAMOUS CELL CARCINOMA)","carcinogen call (Species: MOUSE, Strain/Sex: NZY/MALE, Route: ORAL, Dose: 0, 1.56 NMOL IN DRINKING WATER 5D/WK FOR 8 WK FOR A TOTAL DOSE OF 0, 5.4 MILLIMOLAR/KG (STUDY DURATION: 600-800 D), Dose: 0, 1.56 NMOL IN DRINKING WATER 5D/WK FOR 8 WK FOR A TOTAL DOSE OF 0, 5.4 MILLIMOLAR/KG (STUDY DURATION: 600-800 D), Tumor Site: Type of Lesion: ESOPHAGUS: PAPILLOMA OR CARCINOMA, STOMACH: SQUAMOUS CELL CARCINOMA, LIVER: HEPATOCELLULAR TUMOR, Tumor Site: Type of Lesion: ESOPHAGUS: PAPILLOMA OR CARCINOMA, STOMACH: SQUAMOUS CELL CARCINOMA, LIVER: HEPATOCELLULAR TUMOR)","carcinogen call (Species: RAT, Strain/Sex: F344/FEMALE, Route: ORAL, Dose: 0.9 MM (112 MG/L) IN DRINKING WATER 5/WK FOR 28 WK, Tumor Site: Type of Lesion: LIVER: CARCINOMA, SARCOMA, ESOPHAGUS: PAPILLOMA, CARCINOMA)"
OC(c1ccc(Cl)cc1)(c1cncnc1)c1ccccc1Cl (stereo not given),inactive; negative (nonstatistical increase in hepatocellular adenomas),inactive; negative (nonstatistical increase in hepatocellular adenomas),–,–,–,–,–,–,–,–,–,–,–,–,–
O=NN1CCCCCC1,–,–,active; positive,active; positive,active; positive,active; positive,active; positive,active; positive,active; positive,active; positive,active; positive,active; positive,active; positive,active; positive,active; positive
